According to patent US5240961A, “Method of treating reduced insulin-like growth factor and bone loss associated with aging” (priority 1992, dated 1993):
“And” between values parts separate entries of the source, which are not always exact repeats. Equal values may be shown once. “Also recorded” adds a separate entry of the source. Read-outs that look alike come from different tables or passages of the source.

Assays:
[1] = Serum carnitine levels in aged mice fed L-carnitine; assay type: in vivo, mouse (BALB/c); conditions: mouse, serum, po, 50 mg/kg/day, 50 mg/kg/day oral, six weeks
Description: (§1) The present invention is further explained by the following examples which should not be construed by way of limiting the scope of the present invention. In the following examples, serum carnitine levels were determined by the method of R. Parvin et al., Anal. Biochem., vol. 79 (1979) pp. 190-201. Serum IGF-1 concentrations were measured by immunoradiometric assay, for example, by IRMA Kit available from Diagnostic Systems Laboratories, Inc., Webster, Texas. Serum osteocalcin levels were measured according to the method of Grunaberg et al., Meth. Enzymology, vol 107 (1984) 516, and which is embodied in an osteocalcin kit available from Biomedical Technologies, Inc., Stoughton, Mass. All mice used in the animal studies were BALB/c strain which is commercially available.
(§2) Forty aged mice were separated into two groups. After an initial acclimatizing period of one week, one group was fed a diet with L-carnitine supplementation for six weeks and the other was fed normal, unsupplemented feed (control). Each mouse in the test group was fed a daily oral dose of L-carnitine of about 50 mg/kg of body weight. The average daily food for each mouse was determined by weighing the food initially placed in the food bin and weighing the remaining food. The feed was supplemented with L-carnitine so that each mouse in the test group consumed the test dose (50 mg/kg) of L-carnitine each day. Mouse blood was sampled prior to beginning of the trial (pretreatment), at the end of three weeks, and at six weeks (posttreatment), and was evaluated for serum osteocalcin and carnitine levels.

serum carnitine [2] = assay: as above; assay type: in vivo, mouse (BALB/c); conditions: 50 mg/kg/day
Description: as §1, §2

[3] = Serum carnitine at 12 weeks in adult mice fed L-carnitine, acetyl carnitine or γ-butyrobetaine; set-up: species or system mouse (BALB/c male); conditions: mouse, in vivo, po, Serum carnitine
Description: as §1
Tests were performed to compare the effects on serum osteocalcin of diet supplementation with L-carnitine, its precursor, γ-butyrobetaine (available from Aldrich Chemical Co.) and one of its metabolites, acetylcarnitine (available from Life Science Resources, Milwaukee, Wis. 53223). Twenty adult mice, i.e., three months of age, (BALB/c male mice) were divided into seven groups. Each of the groups was fed diets as indicated hereinbelow for twelve weeks. One group (n=3) was fed a diet with L-carnitine supplementation at a dose of 50 mg/kg of body weight each day, while the second group (n=3) was fed L-carnitine at a daily dose of about 100 mg/kg. The third group (n=2) was fed a diet with acetylcarnitine supplementation at a daily dose of 50 mg/kg, while the fourth group (n=3) was fed a daily dose of 100 mg/kg of this compound. The fifth group (n=2) was fed a daily dose of 50 mg/kg of γ-butyrobetaine supplementation,while the sixth group was fed a daily dose of 100 mg/kg of γ-butyrobetaine. The seventh group (n=4) was fed normal, unsupplemented feed (control). Mouse blood was sampled prior to beginning of the trial (pretreatment), at six weeks, and at the end of the trial (twelve weeks). The samples were evaluated for serum osteocalcin levels at six and twelve weeks. Total carnitine was determined at twelve weeks.

serum IGF-1 [4] = assay: Serum IGF-1 after oral L-carnitine, double-blind study in patients over 60 (Example 5); assay type: in vivo, human; conditions: for IGF-1: individual subjects 010-019, 2 g/day oral; for average serum IGF-1: treatment group average
Description: as §1
(§3) Nineteen patients (over age 60) were enrolled in a preliminary double-blindstudy to establish the effect of oral L-carnitine treatment on serum IGF-1 and osteocalcin levels. Baseline, i.e., pretreatment, levels of serum IGF-1, osteocalcin and carnitine were measured by known methods. The patients were divided into two groups, control (n=9; subjects 001-009 in Table 5 below) and treatment (n=10; subjects 010-019 in Table 5 below). The treatment group received a daily dosage of 2 g of L-carnitine orally, self-administered, in four separate doses of two 250 mg tablets taken four times per day, for twelve weeks. The control group were given placebo, e.g., simple sugar. Serum samples were drawn every four weeks, and serum carnitine, IGF-1 and osteocalcin were determined.

serum IGF-1 [5] = assay: IGF-1 response to L-carnitine supplementation in healthy adults over 60 (Example 4); assay type: in vivo, human; conditions: three months
Description: as §1
(§4) Seven adults from Example 3 agreed to receive a daily dosage of L-carnitine of 2 g/day, self-administered orally, for three months. Doses were administered four times daily, and each dose consisted of two 250 mg tablets. Of the seven individuals, two individuals dropped out of the study due to unrelated illness; thus, five remained in the study to completion. The following were evaluated by pretreatment and posttreatment comparisons: serum carnitine and serum IGF-1 by known methods, and bone mineral contents by bone scan of thoracic region, i.e., thoracic vertebrae, on a NORLAND scanner.

[6] = Serum carnitine after oral L-carnitine in healthy adults over 60 (Example 4); assay type: in vivo, human; conditions: human, serum, po, 2 g/day, individual subjects, 2 g/day oral, three months
Description: as §1, §4

serum carnitine [7] = assay: as above; assay type: in vivo, human; conditions: individual subjects, 2 g/day oral, three months; for concentration: 131400 min
Description: as §1, §4

serum osteocalcin [8] = assay: Serum osteocalcin after oral L-carnitine, double-blind study in patients over 60 (Example 5); assay type: in vivo, human; conditions: for Osteocalcin: individual subjects 010-019, 2 g/day oral; for average serum osteocalcin: treatment group average
Description: as §1, §3

[9] = system: bone mineral content of thoracic vertebrae; assay: Bone mineral content of thoracic vertebrae by bone scan (Example 4); assay type: in vivo, human
Description: as §4

serum osteocalcin [10] = assay: Osteocalcin response to L-carnitine in young mice; assay type: in vivo, mouse (BALB/c)
Description: as §1
Similar tests were performed on six young mice, i.e., 2 months 5 months of age. One group (n=3) was fed a diet with L-carnitine supplementation for three months, the other (n=3) was fed normal, unsupplemented feed (control). Each mouse in the test group was fed a daily oral dose of L-carnitine of about 50 mg/kg of body weight. Mouse blood was sampled prior to beginning of the trial (pretreatment) i.e., at two months of age, and at 5 months of age, and was evaluated for serum osteocalcin and carnitine levels.

[11] = read-out: Carnitine, Free, posttreatment
[12] = read-out: Carnitine, Total, posttreatment

## C[N+](C)(C)C[C@H](O)CC(=O)[O-] [L-carnitine]
[1]; read-out: Serum Carnitine, Free
  concentration at 1008 h: 57 ± 9.7 µM
[1]; read-out: Serum Carnitine, Total
  concentration at 1008 h: 80.2 ± 9.5 µM
Serum carnitine [2]
  carnitine levels vs control group: higher carnitine levels than the control group
[3]; 50 mg/kg/day, Free
  concentration at 2016 h: 52.1 µM
[3]; 50 mg/kg/day, Total
  concentration at 2016 h: 66 µM
[3]; 100 mg/kg/day, Free
  concentration at 2016 h: 41.6 µM
[3]; 100 mg/kg/day, Total
  concentration at 2016 h: 59.5 µM
Serum IGF-1 [4]; eight and twelve weeks
  IGF-1 vs control at eight and twelve weeks, significance: just below significance
Serum IGF-1 [4]; five treated patients with pretreatment IGF-1 under 200 ng/ml, four weeks
  correlation between pretreatment IGF-1 and increase in IGF-1: -0.654
Serum IGF-1 [4]; four, eight and twelve week intervals, 1 unit=240 ng
  serum IGF-1 after treatment: above 500 U/L
Serum IGF-1 [4]; 4 weeks
  IGF-1: 118 ng/mL and 192 ng/mL and 62 ng/mL and 213 ng/mL and 305 ng/mL and 318 ng/mL and 185 ng/mL and 178 ng/mL and 244 ng/mL and 173 ng/mL
Serum IGF-1 [4]; 8 weeks
  IGF-1: 147 ng/mL and 197 ng/mL and 248 ng/mL and 157 ng/mL and 329 ng/mL and 201 ng/mL and 163 ng/mL and 168 ng/mL
Serum IGF-1 [4]; 12 weeks
  IGF-1: 108 ng/mL and 157 ng/mL and 179 ng/mL and 260 ng/mL and 185 ng/mL and 207 ng/mL
Serum IGF-1 [4]; eight weeks
  average serum IGF-1: 200.8 ng/mL
Serum IGF-1 [4]; four weeks
  average serum IGF-1: 214.0 ng/mL
Serum IGF-1 [4]; twelve weeks
  average serum IGF-1: 193.7 ng/mL
Serum IGF-1 [4]; twelve week test period
  IGF-1 response: increased in the carnitine treatment group; also recorded: the lower the baseline level of IGF-1, the greater the increase in IGF-1; also recorded: restored and maintained IGF-1 levels at the normal range
Serum IGF-1 [5]; 2 g/day oral
  significance of IGF-1 increase (p, paired comparisons): ≤ 0.05
Serum IGF-1 [5]; individual subjects 001-005, 2 g/day oral
  IGF-1, posttreatment: 396 ng/mL and 280 ng/mL and 148 ng/mL and 270 ng/mL and 264 ng/mL
Serum IGF-1 [5]; mean, 2 g/day oral, pretreatment mean 170
  mean IGF-1 after treatment: 272 ng/mL
[6]; [11]
  concentration at 2190 h: 77.2 µM
[6]; [12]
  concentration at 2190 h: 102 µM
Serum carnitine [7]; [11]
  concentration: 57 µM and 55.4 µM and 38.6 µM and 44.8 µM
Serum carnitine [7]; [12]
  concentration: 70.7 µM and 68.9 µM and 54.7 µM and 73.4 µM
Serum carnitine [7]; ratio esterified/free
  Carnitine E/F, posttreatment: 0.32 and 0.24 and 0.42 and 0.64
Serum osteocalcin [8]; 4, 8 and 12 weeks
  osteocalcin vs control, significance: just below significance
Serum osteocalcin [8]; 4 weeks
  Osteocalcin: 11.8 ng/mL and 13.6 ng/mL and 7.4 ng/mL and 11.5 ng/mL and 7.9 ng/mL and 10.4 ng/mL and 11.6 ng/mL and 3.6 ng/mL and 5.9 ng/mL
Serum osteocalcin [8]; 8 weeks
  Osteocalcin: 11.9 ng/mL and 10.2 ng/mL and 7.0 ng/mL and 10.8 ng/mL and 9.0 ng/mL and 11.0 ng/mL and 2.4 ng/mL and 4.9 ng/mL
Serum osteocalcin [8]; 12 weeks
  Osteocalcin: 9.3 ng/mL and 11.8 ng/mL and 8.7 ng/mL and 7.0 ng/mL and 9.1 ng/mL and 11.4 ng/mL and 6.5 ng/mL
Serum osteocalcin [8]; eight weeks
  average serum osteocalcin: 8.4 ng/mL
Serum osteocalcin [8]; four weeks
  average serum osteocalcin: 9.2 ng/mL
Serum osteocalcin [8]; twelve weeks
  average serum osteocalcin: 9.1 ng/mL
[9]; all patients, after treatment
  bone mineral content of the thoracic vertebral region: all patients demonstrated an increase in bone mineral content of the thoracic vertebral region
[9]; individual subjects, 2 g/day oral, three months
  Bone mineral content, post treatment: 427.0 g and 1118.4 g and 986.1 g and 736.2 g and 887.7 g
[9]; individual subjects, post vs pre treatment, 2 g/day oral, three months
  Bone mineral content, change: +3.85% and +1.39% and +5.69% and +0.72% and +7.35%
Serum osteocalcin [10]; 5 mos., 50 mg/kg/day oral for three months
  Osteocalcin: 256 ng/mL
Serum osteocalcin [10]; five months, 50 mg/kg/day
  osteocalcin vs control: maintained a higher level of osteocalcin at five months
